Measurements published in PMC10299588, “Bromotyrosine-Derived Metabolites from a Marine Sponge Inhibit Pseudomonas aeruginosa Biofilms” (International Journal of Molecular Sciences, 2023).
“Also recorded” adds a separate entry of the source. Like-named read-outs stand apart in the source and are kept apart here.

Experiments:
planktonic PAO1 = assay: Checkerboard assay with antibiotics; format: cell-based, Pseudomonas aeruginosa; parameters: MIC of ciprofloxacin reduced to: unit not given beside the values; conditions: for synergy with ciprofloxacin: planktonic PAO1; for MIC of ciprofloxacin reduced to: in combination with compound
Protocol: The synergistic activity of compounds with antibiotics, including tobramycin, ciprofloxacin and meropenem, was investigated by a checkerboard dilution assay. Briefly, mid-log cultures of P. aeruginosa were diluted 1:1250 before being added to the plates. Next, 90 µL aliquots of diluted cells were added to a 96-well Costar (Corning) plate containing either 10 µL of compounds and/or 10 µL of antibiotics. Compounds and antibiotics were tested at 11 and 7 concentrations, respectively. The first row contained antibiotics alone, while the first column contained compounds alone, and the remaining columns were for combinations.

PDO300 biofilms = assay: Fluorescence microscopy of biofilms (SYTO9/propidium iodide); format: cell-based, Pseudomonas aeruginosa; conditions: for biofilm after treatment: compound alone
Protocol: (§1) Biofilms of wild-type PAO1 and isogenic biofilm matrix component mutants were treated with ianthelliformisamines or ciprofloxacin alone and the combinations. Their biofilms were simultaneously stained with SYTO9 (green) and propidium iodide (red). Cells with intact membranes were stained green, while cells with compromised membranes were stained red.
(§2) For biofilm bacteria imaging, bacteria were cultured, treated with test compounds, and washed, as previously mentioned in the biofilm inhibition assay. The biofilm bacteria were stained using a LIVE/DEAD BacLight bacterial viability kit (Molecular Probes, Inc., Eugene, OR, USA), which consists of SYTO9 (green; staining cells with intact membrane) and propidium iodide (red; staining cells with compromised membrane). Images were captured using a high-content imaging system Operetta CLS (Perkin Elmer, Waltham, MA, USA) with a 60× water-immersion objective.

PAO1ΔpslA biofilms = assay: as above; format: cell-based, Pseudomonas aeruginosa
Protocol: as §1, §2

PAO1 biofilms = assay: as above; format: cell-based, Pseudomonas aeruginosa
Protocol: as §1, §2

[1] = test system: efflux pumps of P. aeruginosa; assay: Ethidium bromide efflux assay; format: cell-based, Pseudomonas aeruginosa; conditions: for efflux pump inhibition (intracellular EtBr accumulation): 60 min, compound 3 at 53.1 and 106.2 µg/mL
Source text: We performed the ethidium bromide (EtBr) efflux assay to assess the ability of test compounds to inhibit efflux pumps of P. aeruginosa. The DNA-intercalating dye EtBr is a common substrate of the resistance-nodulation-cell division (RND) family. The dye only fluoresces when bound to DNA in the cytoplasm. The disruption of efflux pumps such as the RND pump AcrB enhances the accumulation of the substrate within the cells over time until it reaches a steady state. (Figure 5C).
To investigate the efflux pump-inhibiting activity of test compounds on wild-type PAO1, an efflux assay using ethidium bromide (EtBr) as a substrate was performed as previously described. An overnight culture of PAO1 in LB broth was incubated in a shaker at 37 °C until it reached an OD600 of 0.5. The bacterial cells were washed with phosphate buffered saline (PBS) and centrifuged, and the pellet was resuspended in PBS. Test compounds, 5 µL, were added to the flat-bottomed, black 96-well-plate followed by addition of 90 µL of the bacterial suspension. EtBr at a non-toxic concentration (5 µL, 2 µg/mL) was added before the plates were read. The fluorescence reading was recorded at an excitation of 530 nm and emission of 590 nm every min for 60 min using a BioTek Synergy H1 Hybrid microplate reader. Carbonyl cyanide m-chlorophenyl hydrazone (CCCP), a chemical inhibitor of efflux pumps, was used as the positive control, and DMSO (1–2%) was used as the vehicle control, as compounds were dissolved in DMSO. Untreated cells were used as the negative control.

PAO1ΔpelF biofilms = format: cell-based, Pseudomonas aeruginosa
Protocol: as §1, §2

[2] = test system: planktonic P. aeruginosa PAO1; assay: Minimum inhibitory concentration (MIC) determination; format: cell-based, Pseudomonas aeruginosa; conditions: for antimicrobial activity against P. aeruginosa PAO1: up to the highest concentrations applied
Protocol: The minimum inhibitory concentration (MIC) of compounds and antibiotics were performed as previously described, with minor modification. […] Three antibiotics, including tobramycin, ciprofloxacin, and meropenem, were dissolved in water and filter sterilized. Ten microliters of two-fold serially diluted antibiotics were transferred to a 96-well Costar plate (Corning Inc., Corning, MA, USA) followed by the addition of 90 µL of diluted cultures. After an 18-h incubation at 37 °C in the static condition, optical density OD600 was monitored using a Synergy 2 microplate reader (BioTek, Winooski, VT, USA). […] The MIC was determined as the lowest concentrations of antibiotics that inhibit complete bacterial growth compared to growth control.

[3] = Stability in liver microsomes; format: in vitro ADME, human; conditions: for half-life at 1 µM: both sexes, human, liver microsomes
Protocol: (§3) The metabolic assays were performed based on a previously described method. […] The final organic (ACN) concentration in the incubation tubes was 1%. […] Samples (50 μL) were removed at t = 0 (immediately after reaction start), 5, 10, 20, 30, and 60 min. Samples were added to microcentrifuge tubes containing 150 μL of ice-cold acetonitrile containing internal standard (clotrimazole; for […] = 10.0 ng/mL + 0.5% (v/v) formic acid; for 1 and 2 = 2.0 ng/mL + 0.5% (v/v) formic acid; for VPL = 20.0 ng/mL + 0.1% (v/v) formic acid). Tubes were centrifuged (13,000× g, 5 min), and ~135 μL of supernatant transferred to polypropylene 96-well plates for analysis.
(§4) Chromatographic separation was achieved using a biphenyl column [Kinetix, 100 mm × 4.6 mm, 2.6 μm; Phenomenex (Sydney, Australia)], coupled with a gradient elution with mobile phases containing acetonitrile/H2O/0.5% formic acid. Analysis was conducted in positive ion multiple reaction monitoring (MRM) mode with argon as the collision gas. Optimum MS/MS conditions were established prior to incubations by direct infusion of individual solutions of 1, 2, and 3 into the LC-MS/MS. To ensure adequate sensitivity of analysis, multiple mass transitions were summed for all three test compounds.
(§5) LN % remaining vs. time data for each data set were fitted to an exponential decay function to determine the first-order rate constant (k) for substrate depletion. For Equations (5)–(7), scaling parameters used were described elsewhere.

[4] = Stability in liver microsomes; format: in vitro ADME, mouse; conditions: for hepatic extraction: calculated from microsomal half-life, fu = 1 assumed; for level of hepatic extraction: classification system of Houston 1994; for half-life at 1 µM: male, CD-1, mouse, liver microsomes
Protocol: as §3, §4, §5

[5] = compound alone (1 86.2, 2 69.1, 3 53.1/106.2 µg/mL)
[6] = in combination with ciprofloxacin
[7] = pH 7.4, with NADPH regeneration system, 1.0 µM, 0.5 mg/mL microsomes, read-out: half-life of degradation
[8] = pH 7.4, no NRS, compound 1 between 20 and 60 min, compound 2 over 30 min, read-out: half-life of degradation, negative control (no NRS added)

Structure (SMILES)	synergy with ciprofloxacin (planktonic PAO1)	biofilm after treatment (PDO300 biofilms)	interaction with ciprofloxacin on biofilms (PAO1 biofilms)	biofilm after treatment (PAO1 biofilms; [5])	efflux pump inhibition (intracellular EtBr accumulation) [1]	effect in combination with ciprofloxacin (PAO1ΔpelF biofilms)	metabolic stability [3]	metabolic stability [4]	enhancement of the activity of tobramycin or meropenem (planktonic PAO1)	MIC of ciprofloxacin reduced to (planktonic PAO1)	effect in combination with ciprofloxacin (PDO300 biofilms)	biofilm after treatment (PAO1ΔpslA biofilms; [6])	antimicrobial activity against P. aeruginosa PAO1 [2]	hepatic extraction [4]	level of hepatic extraction [4]	half-life at 1 µM [4, 8]	half-life at 1 µM [4, 7]	other results
COc1c(Br)cc(/C=C/C(=O)NCCCNCCCCNCCCNC(=O)/C=C/c2cc(Br)c(OC)c(Br)c2)cc1Br [Compound 3, ianthelliformisamine C]	limited synergy	completely eradicated	antagonistically	slightly reduced	is an efflux pump inhibitor	no effect	metabolically stable	metabolically stable										biofilm after treatment (PAO1ΔpslA biofilms; alone): completely dispersed the biofilm; level of intracellular EtBr accumulation relative to CCCP [1]: greater than that mediated by reference compound CCCP; efflux pump inhibition (intracellular EtBr accumulation) ([1]; listed as ianthelliformisamine C): inhibited the efflux pump; biofilm after treatment (PAO1ΔpelF biofilms; compound alone): no effect; MIC ([2]; Pseudomonas aeruginosa, planktonic (free-living) PAO1, LB medium, 18 h, 37 °C): 53.1 µg/mL
COc1c(Br)cc(/C=C/C(=O)NCCCNCCCCN)cc1Br [Compound 2, ianthelliformisamine B]	worked synergistically	slightly reduced	no effect	remained unaffected	comparable EtBr accumulation with untreated bacteria	synergistic effects	moderate degradation; also recorded: moderately degraded	moderate degradation; also recorded: moderately degraded	did not enhance	1/4	synergistic effects	eradicated	no antimicrobial activity	0.42	intermediate	90 min	42.8 ± 7.6 min	half-life at 1 µM ([3]; pH 7.4, no NRS, 30-min incubation, read-out: half-life of degradation, negative control (no NRS added)): 103 min; half-life at 1 µM [3, 7]: 35.7 ± 2.1 min; hepatic extraction ([3]; calculated from microsomal half-life, fu = 1 assumed): 0.61; level of hepatic extraction ([3]; classification system of Houston 1994): intermediate
COc1c(Br)cc(/C=C/C(=O)NCCCNCCCCNCCCN)cc1Br [Compound 1, ianthelliformisamine A]	worked synergistically	slightly reduced	synergistically	remained unaffected	comparable EtBr accumulation with untreated bacteria	synergistic effects	substantial instability; also recorded: significant instability	moderate degradation	did not enhance	1/3	synergistic effects	eradicated	no antimicrobial activity	0.48	intermediate	~45 min	38.2 min	biofilm after treatment (PAO1 biofilms; compound 86.2 µg/mL + ciprofloxacin 1/3 MIC): Complete biofilm inhibition
